Test results as given in ChEMBL document CHEMBL1150678, “Bioactive sterols from the starfish Certonardoa semiregularis” (2003).
Converted amounts (≈) assume the structure as drawn.

Tests used:
Escherichia coli [1] = assay: Antimicrobial activity against Escherichia coli 078 isolate after 18 hrs; assay type: functional
Streptococcus pyogenes [2] = assay: Antimicrobial activity against Streptococcus pyogenes 77A isolate after 18 hrs; assay type: functional
Staphylococcus aureus [3] = assay: Antimicrobial activity against Staphylococcus aureus SG511 isolate after 18 hrs; assay type: functional
Escherichia coli [4] = assay: Antimicrobial activity against Escherichia coli 1507E isolate after 18 hrs; assay type: functional
A549 = assay: Cytotoxicity against human A549 cells; assay type: functional; conditions: read-out: ED50 (the source's name)
Staphylococcus aureus [5] = assay: Antimicrobial activity against Staphylococcus aureus 503 isolate after 18 hrs; assay type: functional
Escherichia coli [6] = assay: Antimicrobial activity against Escherichia coli TEM isolate after 18 hrs; assay type: functional
Streptococcus pyogenes [7] = assay: Antimicrobial activity against Streptococcus pyogenes 308A isolate after 18 hrs; assay type: functional
Staphylococcus aureus [8] = assay: Antimicrobial activity against Staphylococcus aureus 285 isolate after 18 hrs; assay type: functional
Klebsiella aerogenes = assay: Antimicrobial activity against Klebsiella aerogenes 1522E after 18 hrs; assay type: functional
HCT-15 = assay: Cytotoxicity against human HCT15 cells; assay type: functional; conditions: read-out: ED50 (the source's name)
Pseudomonas aeruginosa [9] = assay: Antimicrobial activity against Pseudomonas aeruginosa 1592E isolate after 18 hrs; assay type: functional
Escherichia coli [10] = assay: Antimicrobial activity against Escherichia coli DC2 isolate after 18 hrs; assay type: functional
Pseudomonas aeruginosa [11] = assay: Antimicrobial activity against Pseudomonas aeruginosa 1771 isolate after 18 hrs; assay type: functional
Klebsiella oxytoca = assay: Antimicrobial activity against Klebsiella oxytoca 1082E after 18 hrs; assay type: functional
Enterobacter cloacae [12] = assay: Antimicrobial activity against Enterobacter cloacae P99 after 18 hrs; assay type: functional
Enterococcus faecium = assay: Antimicrobial activity against Streptococcus faecium MD8b isolate after 18 hrs; assay type: functional
XF498 = assay: Cytotoxicity against human XF498 cells; assay type: functional; conditions: read-out: ED50 (the source's name)
Pseudomonas aeruginosa [13] = assay: Antimicrobial activity against Pseudomonas aeruginosa 9027 isolate after 18 hrs; assay type: functional
Pseudomonas aeruginosa [14] = assay: Antimicrobial activity against Pseudomonas aeruginosa 1771M isolate after 18 hrs; assay type: functional
Salmonella typhimurium = assay: Antimicrobial activity against Salmonella Typhimurium after 18 hrs; assay type: functional, Salmonella enterica subsp. enterica serovar Typhimurium; conditions: Salmonella enterica
Enterobacter cloacae [15] = assay: Antimicrobial activity against Enterobacter cloacae 1321E after 18 hrs; assay type: functional
SK-OV-3 = assay: Cytotoxicity against human SKOV3 cells; assay type: functional; conditions: read-out: ED50 (the source's name)
Escherichia coli [16] = assay: Antimicrobial activity against Escherichia coli DC0 isolate after 18 hrs; assay type: functional
SK-MEL-2 = assay: Cytotoxicity against human SK-MEL-2 cells; assay type: functional; conditions: read-out: ED50 (the source's name)

Row | MIC (Escherichia coli [1]) [µg/mL] | MIC (Streptococcus pyogenes [2]) [µg/mL] | MIC (Staphylococcus aureus [3]) [µg/mL] | MIC (Escherichia coli [4]) [µg/mL] | MIC (Staphylococcus aureus [5]) [µg/mL] | MIC (Escherichia coli [6]) [µg/mL] | MIC (Streptococcus pyogenes [7]) [µg/mL] | MIC (Staphylococcus aureus [8]) [µg/mL] | MIC (Klebsiella aerogenes) [µg/mL] | MIC (Pseudomonas aeruginosa [9]) [µg/mL] | MIC (Escherichia coli [10]) [µg/mL] | MIC (Pseudomonas aeruginosa [11]) [µg/mL] | MIC (Klebsiella oxytoca) [µg/mL] | MIC (Enterobacter cloacae [12]) [µg/mL] | MIC (Pseudomonas aeruginosa [14]) [µg/mL] | Compound | EC50 (A549) [µg/mL] | EC50 (HCT-15) [µg/mL] | EC50 (XF498) [µg/mL] | EC50 (SK-OV-3) [µg/mL] | EC50 (SK-MEL-2) [µg/mL] | also measured
1 | > 25 | > 25 | > 25 | > 25 | > 25 | > 25 | 25 (≈ 55.7 µM) | > 25 | > 25 | > 25 | > 25 | > 25 | > 25 | > 25 | > 25 | C=C(CC[C@@H](C)[C@H]1C[C@H](O)[C@H]2[C@@H]3C[C@@H](O)[C@H]4C[C@@H](O)CC[C@]4(C)[C@H]3CC[C@@]21C)[C@H](C)CO [CERTONARDOSTEROL E] | 3.9 (≈ 8.69 µM) | 4.2 (≈ 9.36 µM) | 4.1 (≈ 9.14 µM) | 4.9 (≈ 10.9 µM) | 4.1 (≈ 9.14 µM) | MIC (Enterococcus faecium): > 25 µg/mL; MIC (Pseudomonas aeruginosa [13]): > 25 µg/mL; MIC (Salmonella typhimurium): > 25 µg/mL; MIC (Enterobacter cloacae [15]): > 25 µg/mL; MIC (Escherichia coli [16]): > 25 µg/mL
2 | > 25 | 25 (≈ 57.3 µM) | > 25 | > 25 | > 25 | > 25 | 25 (≈ 57.3 µM) | > 25 | > 25 | 25 (≈ 57.3 µM) | > 25 | 25 (≈ 57.3 µM) | > 25 | > 25 | > 25 | CC(C)[C@@H](O)CC[C@@H](C)[C@H]1C[C@@H](O)[C@H]2[C@@H]3C[C@H](O)[C@H]4C[C@@H](O)CC[C@]4(C)[C@H]3CC[C@@]21C [CERTONARDOSTEROL F] | 3.8 (≈ 8.7 µM) | 5.5 (≈ 12.6 µM) | 4.3 (≈ 9.85 µM) | 4.4 (≈ 10.1 µM) | 3.8 (≈ 8.7 µM) | MIC (Enterococcus faecium): > 25 µg/mL; MIC (Pseudomonas aeruginosa [13]): > 25 µg/mL; MIC (Salmonella typhimurium): > 25 µg/mL; MIC (Enterobacter cloacae [15]): > 25 µg/mL; MIC (Escherichia coli [16]): > 25 µg/mL
3 |  |  |  |  |  |  |  |  |  |  |  |  |  |  |  | CC(/C=C/[C@@H](C)[C@H]1C[C@@H](O)[C@H]2[C@@H]3C[C@H](O)[C@H]4C(O)[C@@H](O)CC[C@]4(C)[C@H]3CC[C@@]21C)CCO (stereo not given in full) [CERTONARDOSTEROL L] | 4.3 (≈ 9.54 µM) | 4.2 (≈ 9.32 µM) | 4.5 (≈ 9.99 µM) | 6 (≈ 13.3 µM) | 4.3 (≈ 9.54 µM) | 
4 |  |  |  |  |  |  |  |  |  |  |  |  |  |  |  | C[C@H](CO)[C@H](C)CC[C@@H](C)[C@H]1C[C@@H](O)[C@@H]2[C@]1(C)CC[C@@H]1[C@@]3(C)CC[C@H](O)[C@H](O)[C@@H]3[C@@H](O)C[C@]12O [CERTONARDOSTEROL M] | 30 (≈ 62.2 µM) | > 30 | > 30 | > 30 | > 30 | 
5 |  |  |  |  |  |  |  |  |  |  |  |  |  |  |  | COc1cccc2c1C(=O)c1c(O)c3c(c(O)c1C2=O)C[C@@](O)(C(=O)CO)C[C@@H]3O[C@H]1C[C@H](N)[C@H](O)[C@H](C)O1 [DOXORUBICIN] | 0.02 (≈ 0.0368 µM) | 0.03 (≈ 0.0552 µM) | 0.06 (≈ 0.11 µM) | 0.17 (≈ 0.313 µM) | 0.02 (≈ 0.0368 µM) | 

Row | Compound | MIC (Escherichia coli [1]) [µg/mL] | MIC (Streptococcus pyogenes [2]) [µg/mL] | MIC (Staphylococcus aureus [3]) [µg/mL] | MIC (Escherichia coli [4]) [µg/mL] | MIC (Staphylococcus aureus [5]) [µg/mL] | MIC (Escherichia coli [6]) [µg/mL] | MIC (Streptococcus pyogenes [7]) [µg/mL] | MIC (Staphylococcus aureus [8]) [µg/mL] | MIC (Klebsiella aerogenes) [µg/mL] | MIC (Pseudomonas aeruginosa [9]) [µg/mL] | MIC (Escherichia coli [10]) [µg/mL] | MIC (Pseudomonas aeruginosa [11]) [µg/mL] | MIC (Klebsiella oxytoca) [µg/mL] | MIC (Enterobacter cloacae [12]) [µg/mL] | MIC (Pseudomonas aeruginosa [14]) [µg/mL] | EC50 (A549) [µg/mL] | EC50 (HCT-15) [µg/mL] | EC50 (XF498) [µg/mL] | EC50 (SK-OV-3) [µg/mL] | EC50 (SK-MEL-2) [µg/mL] | also measured
6 | C[C@@H](O)[C@H]1C(=O)N2C(C(=O)O)=C(S[C@@H]3CN[C@H](C(=O)N(C)C)C3)[C@H](C)[C@H]12 [MEROPENEM] |  | 0.004 (≈ 0.0104 µM) |  |  |  |  | 0.01 (≈ 0.0261 µM) |  |  | 0.2 (≈ 0.522 µM) |  | 0.39 (≈ 1.02 µM) |  |  | 0.1 (≈ 0.261 µM) |  |  |  |  |  | 
